Counter-ions that a name gives are not always drawn.

The test concerns the target T1, GPIIb/IIIa (Homo sapiens, UniProt P05106+P08514).
T1 construct: Purification of GPIIb/IIIa from HEL cells; endogenous in cells; host or cells: HEL cells (HEL 92.1.7, ATCC TIB180); endogenous complex solubilized with Triton X-100 and purified in house
Description: Inhibitory activity against binding of GPIIb/IIIa and fibrinogen. Particulars: Table 2; for inhibition at 10 µM / inhibition at 1 µM: read-out: GPIIb/IIIa Fibrinogen Binding Inhibitory Activity. The method, then:
Test Example 1: Inhibitory activity against binding of GPIIb/IIIa and fibrinogen
(1) Cultivation of human erythroleukemia-derived cell line (hereinafter referred to as HEL cells)
HEL cells (HEl92.1.7; ATCC No. TIB180) were purchased from ATCC (Rockville, Md., U.S.A.). The medium was RPMI medium (GIBCO Laboratories, Grand Island, N..Y, U.S.A.) containing 40 mM N-2-hydroxyethylpiperazine-N'-2-ethanesulfonic acid (hereinafter referred to as HEPES) (pH 7.0), 0.2% NaHCO3, 100 μg/ml kanamycin and 10% FCS. The cells were cultured in the presence of 5% CO2 at 37° C., with the medium replaced with a fresh medium to obtain a 4- to 5-fold dilution at intervals of 3 to 4 days.
(2) Purification of GPIIb/IIIa from HEL cells
GPIIb/IIIa was purified by a modification of the method of L. A. Fitzgerald et al. [J. Biol. Chem., 262, 3936 (1987)] as follows: All purification was conducted at room temperature, unless otherwise stated. At 7 days of cultivation, cells were collected from the HEL cell culture broth (cell suspension) by centrifugation (1,000 ×g, 10 minutes, 4° C.). After washing with 20 mM Tris-HCl (pH 7.5) containing 1 mM EDTA and 150 mM NaCl, the cells were suspended in a solubilizing buffer (20 mM Tris-HCl, 150 mM NaCl, 1% Triton X-100, 1 mM MgCl2, 1 mM CaCl2, 0.1 mM (p-amidinophenyl)methanesulfonyl fluoride (hereinafter referred to as APMSF), 10 nM leupeptin, 0.02% NaN3, pH 7.4), followed by gentle stirring at 4° C. for 30 minutes, to solubilize the GPIIb/IIIa. The suspension was centrifuged (100,000 ×g, 1 hour) at 4° C., and the cell debris removed, to yield a cell extract. The cell extract was passed through a Heparin-Sepharose CL-6B column (Pharmacia LKB) and a DEAE-Toyopearl 650M column (Tosoh), both previously equilibrated with a column buffer (20 mM Tris-HCl, 150 mM NaCl, 0.1% Triton X-100, 1 mM MgCl2, 1 mM CaCl2, 0.1 mM APMSF, 1 nM leupeptin, 0.05% NaN3, pH 7.4). The effluent was applied to a ConA-Sepharose column (Pharmacia LKB), previously equilibrated with the same column buffer as above, to adsorb the GPIIb/IIIa, followed by elution with the same column buffer but containing 0.5M methyl α-D-mannopyranoside. The eluted fraction was concentrated at 4° C. using an ultrafiltration apparatus (Amicon Corporation the fraction's molecular weight of 10,000), after which it was subjected to gel filtration through a Sephacryl S-300 column (Pharmacia LKB), previously equilibrated with the same column buffer, to yield a purified standard sample.
(3) Biotinization of human fibrinogen
Conducted by the method of I. F. Charo [I. F. Charo et al., J. Biol. Chem., 266, 1415 (1991)].
Human fibrinogen (Kabi Vitrum AB) was dissolved in PBS to 5 mg/ml and then dialyzed at 4° C. against 0.1M carbonate buffer (pH 8.2) containing 0.1M NaCl. After dialysis, insoluble substances were removed by centrifugation (100,000 ×g, 30 minutes), and the dialyzate was diluted to 1 mg/ml with the same buffer. To this dilution, sulfo-N-hydroxysuccinimidebiotin (Pierce Chemical Co.) was added to a final concentration of 0.2 mg/ml, followed by gentle mixing at room temperature for 30 minutes, to biotinize the fibrinogen. After completion of the reaction, the mixture was dialyzed against 0.05M Tris-HCl buffer (pH 7.4) containing 0.1M NaCl and 0.05% NaN3.
(4) Determination of inhibitory activity against fibrinogen binding
Conducted by a modification of the method of I. F. Charo [I. F. Charo et al., J. Biol. Chem., 266, 1415 (1991)] as follows: The purified GPIIb/IIIa was diluted to 1 μg/ml with buffer A (20 mM Tris-HCl, 150 mM NaCl, 1 mM CaCl2, 0.02% NaN3, pH 7.4). A 100 μl aliquot of this dilution was dispensed to a 96-well microplate (Maxisorp, produced by Nunc), and the plate kept standing at 4° C., to adsorb the GPIIb/IIIa to the microplate. Next, 150 μl of buffer B (35 mg/ml BSA, 50 mM Tris-HCl, 100 mM NaCl, 2 mM CaCl2, 0.02% NaN3, pH 7.4) was added, followed by 2 hours of blocking at 30° C. […]

T1 sequence (P08514 32-887 limits assumed): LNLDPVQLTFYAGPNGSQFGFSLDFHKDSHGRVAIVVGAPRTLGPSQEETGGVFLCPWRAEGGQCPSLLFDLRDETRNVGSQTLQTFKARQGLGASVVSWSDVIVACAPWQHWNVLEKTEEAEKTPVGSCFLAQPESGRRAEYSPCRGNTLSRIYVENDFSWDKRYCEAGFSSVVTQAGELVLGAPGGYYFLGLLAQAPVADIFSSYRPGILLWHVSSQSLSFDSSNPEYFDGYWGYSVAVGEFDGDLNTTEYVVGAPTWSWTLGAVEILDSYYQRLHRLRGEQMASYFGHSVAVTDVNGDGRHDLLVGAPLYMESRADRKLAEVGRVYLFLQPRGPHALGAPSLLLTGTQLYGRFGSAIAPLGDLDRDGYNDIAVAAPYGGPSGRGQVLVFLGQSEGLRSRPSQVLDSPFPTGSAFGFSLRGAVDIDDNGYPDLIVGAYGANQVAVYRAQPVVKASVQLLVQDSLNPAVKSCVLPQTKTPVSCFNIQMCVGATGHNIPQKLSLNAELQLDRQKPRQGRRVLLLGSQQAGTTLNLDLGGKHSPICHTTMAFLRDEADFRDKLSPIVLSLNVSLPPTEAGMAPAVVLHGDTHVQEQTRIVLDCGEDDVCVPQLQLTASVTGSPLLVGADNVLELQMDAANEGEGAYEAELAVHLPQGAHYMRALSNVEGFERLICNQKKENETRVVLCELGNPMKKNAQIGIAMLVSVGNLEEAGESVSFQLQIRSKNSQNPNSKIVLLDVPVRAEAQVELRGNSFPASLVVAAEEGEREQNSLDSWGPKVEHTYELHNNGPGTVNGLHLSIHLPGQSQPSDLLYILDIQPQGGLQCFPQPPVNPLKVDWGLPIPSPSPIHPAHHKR
T1 sequence (P08514 891-1039 limits assumed): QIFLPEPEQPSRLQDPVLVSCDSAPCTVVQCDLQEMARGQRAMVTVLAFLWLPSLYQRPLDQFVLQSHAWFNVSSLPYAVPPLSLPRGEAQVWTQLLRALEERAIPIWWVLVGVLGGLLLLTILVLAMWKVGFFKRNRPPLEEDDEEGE
T1 sequence (P05106 27-788): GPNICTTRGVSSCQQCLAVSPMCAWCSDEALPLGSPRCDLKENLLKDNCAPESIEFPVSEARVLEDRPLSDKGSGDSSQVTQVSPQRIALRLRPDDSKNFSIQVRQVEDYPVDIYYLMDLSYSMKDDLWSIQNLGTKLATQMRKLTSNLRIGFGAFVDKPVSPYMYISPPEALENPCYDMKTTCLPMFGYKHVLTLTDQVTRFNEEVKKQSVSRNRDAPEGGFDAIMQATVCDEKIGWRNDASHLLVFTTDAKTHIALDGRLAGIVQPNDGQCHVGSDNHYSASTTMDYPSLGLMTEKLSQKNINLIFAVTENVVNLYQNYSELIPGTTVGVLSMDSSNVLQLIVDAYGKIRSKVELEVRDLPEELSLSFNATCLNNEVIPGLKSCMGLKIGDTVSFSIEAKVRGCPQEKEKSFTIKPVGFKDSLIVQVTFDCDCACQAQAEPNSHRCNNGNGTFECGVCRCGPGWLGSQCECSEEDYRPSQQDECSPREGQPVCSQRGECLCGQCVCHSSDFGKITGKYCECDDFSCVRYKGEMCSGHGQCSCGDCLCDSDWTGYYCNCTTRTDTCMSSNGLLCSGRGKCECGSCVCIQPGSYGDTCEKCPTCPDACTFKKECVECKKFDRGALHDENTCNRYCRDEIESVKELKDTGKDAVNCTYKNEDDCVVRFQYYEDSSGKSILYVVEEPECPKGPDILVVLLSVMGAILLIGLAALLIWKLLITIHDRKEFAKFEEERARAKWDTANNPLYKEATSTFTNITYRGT

As to `O=C(O)c1cn(Cc2nccs2)c2cc(N3CCN(c4ccncc4)CC3)ccc2c1=O` [Compound 57, 7-[4-(4-Pyridyl)piperazine-1-yl]-1-(2-thiazolylmethyl)-1,4-dihydro-4-oxoquinoline-3-carboxylic acid], the inhibition at 10 µM (10^-5 M) was 100%. For the same compound, the inhibition at 1 µM (10^-6 M) stood at 100%.

`CNCCN(C)c1nc2c(cc1F)c(=O)c(C(=O)O)cn2C1CC1` [Compound 20]: for the setting “10^-5 M”, the inhibition at 10 µM worked out at 59.4%. Moreover, the inhibition at 1 µM (10^-6 M) worked out at 12%.

In the case of `O=C(O)c1cn(CCF)c2c(F)c(N3CCn4ccnc4C3)c(F)cc2c1=O` [Compound 9], where the note is “10^-5 M”, the inhibition at 10 µM stood at 69.5%. In addition, where the note is “10^-6 M”, the inhibition at 1 µM was 43.9%.

As for `CN1CCN(C(=O)OC2CCN(c3c(F)cc4c(=O)c(C(=O)O)cn(C5CC5)c4c3F)C2)CC1` (stereo not drawn) [Compound 26], the inhibition at 10 µM (10^-5 M) was 94.1%. Further, the inhibition at 1 µM (10^-6 M) turned out to be 71.4%.

As to `O=C(O)c1cn(C2CC2)c2c(F)c(N3CCN4CCC[C@@H]4C3)c(F)cc2c1=O` [Compound 33], the “GPIIb/IIIa Fibrinogen Binding Inhibitory Activity” value is 68.3% (10^-5 M) and 33.6% (10^-6 M).

`NC(=O)OC1CCN(c2c(F)cc3c(=O)c(C(=O)O)cn(-c4ccc(F)cc4F)c3c2F)C1` (stereo not drawn) [Compound 47]: the inhibition at 1 µM (10^-6 M) turned out to be 43.1%.

With `CC(=O)N1CC(n2cc(C(=O)O)c(=O)c3cc(F)c(N4CCN(C)CC4)c(F)c32)C1` [Compound 15], the inhibition at 10 µM (10^-5 M) was determined as 60.5%. Also, the inhibition at 1 µM (10^-6 M) turned out to be 33.9%.

Regarding `O=C(O)c1cn(Cc2ccncc2)c2c(F)c(N3CCNCC3)c(F)cc2c1=O` [Compound 75, 6,8-Difluoro-7-(1-piperazinyl)-1-(4-pyridylmethyl)-1,4-dihydro-4-oxoquinoline-3-carboxylic acid], the inhibition at 10 µM (10^-5 M) worked out at 100%. Where the note is “10^-6 M”, the inhibition at 1 µM was 100%.

As for `O=C(O)c1cn(Cc2nccs2)c2cc(N3CCC(C4CCNCC4)CC3)ccc2c1=O` [Compound 58, 7-[4-(4-Piperidinyl)piperidin-1-yl]-1-(2-thiazolylmethyl)-1,4-dihydro-4-oxoquinoline-3-carboxylic acid], the inhibition at 10 µM (10^-5 M) worked out at 100%. Moreover, the inhibition at 1 µM (10^-6 M) is 100%.

For the compound `CCN1CCCC1CNc1c(F)cc2c(=O)c(C(=O)O)cn(C3CC3)c2c1F` (stereo not drawn) [Compound 24], the inhibition at 10 µM (10^-5 M) was 50%. Besides, where the note is “10^-6 M”, the inhibition at 1 µM came to 24.9%.

In the case of `CN(C)CCCNc1c(F)cc2c(=O)c(C(=O)O)cn(Cc3nccs3)c2c1F` [Compound 60], the inhibition at 10 µM (10^-5 M) was found to be 100%. Also, the inhibition at 1 µM (10^-6 M) worked out at 95%.

Regarding `O=C(O)c1cn(C2CC2)c2c(F)c(SC3CCNCC3)c(F)cc2c1=O` [Compound 19], the inhibition at 10 µM (10^-5 M) came to 49.7%. The inhibition at 1 µM (10^-6 M) turned out to be 7%.

On to `O=C(O)c1cn(Cc2cscn2)c2c(F)c(N3CCNCC3)c(F)cc2c1=O` [Compound 72, 6,8-Difluoro-7-(1-piperazinyl)-1-(4-thiazolylmethyl)-1,4-dihydro-4-oxoquinoline-3-carboxylic acid hydrochloride], for which the inhibition at 10 µM (10^-5 M) was 100%. Also, the inhibition at 1 µM (10^-6 M) was 88.6%.

For the compound `O=C(O)c1cn(Cc2nccs2)c2c(F)c(N3CCN(c4ccccn4)CC3)c(F)cc2c1=O` [Compound 65], the inhibition at 10 µM (10^-5 M) worked out at 100%. Also, the inhibition at 1 µM (10^-6 M) turned out to be 81.2%.

On to `COc1ccc(Cn2cc(C(=O)O)c(=O)c3ccc(N4CCNCC4)cc32)cc1` [Compound 81, 1-(4-Methoxybenzyl)-7-(4-piperazin-1-yl)-1,4-dihydro-4-oxoquinoline-3-carboxylic acid], for which the inhibition at 10 µM (10^-5 M) worked out at 100%. In addition, for the setting “10^-6 M”, the inhibition at 1 µM is 100%.

As for `O=C(O)c1cn(Cc2cscn2)c2c(F)c(N3CCN(c4ccncc4)CC3)c(F)cc2c1=O` [Compound 73, 6,8-Difluoro-7-[4-(4-pyridyl)piperazine-1-yl]-1-(4-thiazolylmethyl)-1,4-dihydro-4-oxoquinoline-3-carboxylic acid], where the note is “10^-5 M”, the inhibition at 10 µM turned out to be 100%. Besides, where the note is “10^-6 M”, the inhibition at 1 µM was 100%.

For the compound `O=C(O)c1cn(CCc2ccccc2)c2c(F)c(N3CCNCC3)c(F)cc2c1=O` [Compound 56], the inhibition at 10 µM (10^-5 M) worked out at 88.2%. Also, the inhibition at 1 µM (10^-6 M) amounted to 72.2%.

(Values after patent publication US5519024A, “Quinolonecarboxylic acid derivatives and their use” (Takeda Chemical Industries, Ltd., priority 1993, dated 1996).)
